Earlier results, collected in patent publication US8551986B2, “Treatment of sequelae of psychiatric disorders” (The McLean Hospital Corporation, priority 2005, dated 2013).

Conditions: human studies, all but one study; cited from earlier work

Structure (SMILES)	caloric intake
C=C1CC[C@@]2(O)[C@H]3Cc4ccc(O)c5c4[C@@]2(CCN3CC2CC2)[C@H]1O5 [nalmefene]	significant decreases
O=C1CC[C@@]2(O)[C@H]3Cc4ccc(O)c5c4[C@@]2(CCN3CC2CC2)[C@H]1O5 [naltrexone]	significant decreases
